In data set [1] the test system is MCF-7 breast cancer cell line. In words: MTS cell viability (antiproliferative) assay in MCF-7. It is filed as cell-based. As to conditions: Homo sapiens; for IC50: MTS assay, 72 hours, mean ± SD. Here is the method:
(§1) Hormone-positive breast cancer cell line MCF-7 (ATCC-HTB-22; ATCC) was grown in Dulbecco's Modified Eagle's Medium (DMEM), while Ewing sarcoma cell line SK-N-MC (a kind gift from Beat Schäfer) and THP-1 (ATCC-TIB-202; ATCC) cells were grown in Roswell Park Memorial Institute (RPMI) 1640. The medium was supplemented with 10% heat-inactivated fetal bovine serum (Gibco, Thermo Fisher Scientific, Waltham, MA, USA), 100 U per mL penicillin, 100 μg per mL streptomycin, and 2 mM L-glutamine (all from Sigma-Aldrich, St. Louis, MO, USA). All cell lines were incubated at 37 °C in a 5% CO2 atmosphere.
(§2) The antiproliferative activity of the compounds was evaluated against MCF-7 (ATCC-HTB-22; ATCC), SK-N-MC (a kind gift from Beat Schäfer) and THP-1 (ATCC-TIB-202; ATCC) cancer cell lines using the MTS assay (Promega, Madison, WI, USA). Cells were seeded in 96-well plates at a density of 2 × 10^4 cells per mL in 100 μL of growth medium for THP-1 and were treated with compounds and controls directly, while 3 × 10^3 cells per mL for MCF-7 and SK-N-MC were seeded in 100 μL of growth medium and allowed to adhere overnight following the treatment. In all cases the cells were treated with respective newly prepared compounds, positive controls (17-DMAG for MCF-7 and SK-N-MC; PU-H71 for THP-1) and a vehicle control (0.5% DMSO). The incubation time after treatment was 72 hours, then CellTiter96® Aqueous One Solution Reagent (Promega, Madison, WI, USA) was added to each well. Following a 3 hours incubation, absorbance was measured at 492 nm using BioTek's Synergy™ 4 Hybrid Microplate Reader (Winooski, VT, USA). The measurements were performed in two biological repetitions and each time the experiment was performed in a triplicate. The IC50 values, representing the concentration of inhibitor required for half-maximal inhibition, are the average of three independent experiments and were calculated using GraphPad Prism 9.5.0 software (San Diego, CA, USA).
Background: Formazan colour is commonly taken as a measure of viable cells.

The test system of data set [2] is Ewing sarcoma cell line SK-N-MC. In words: MTS cell viability (antiproliferative) assay in SK-N-MC. The following applies: Homo sapiens, SK-N-MC, 72 hours, mean ± SD. It is filed as cell-based. Here is the method:
as §1, §2

In data set [3] the test system is leukemia cell line THP-1. In words: MTS cell viability (antiproliferative) assay in THP-1. It is filed as cell-based. As to conditions: Homo sapiens, THP-1, 72 hours, mean ± SD. As for the experimental part: as §1, §2
Data set [4] deals with T1, full-length Hsp90β (Homo sapiens, UniProt P08238).
T1 construct: For the protein expression of full-length Hsp90β, we received plasmids as a kind gift; made in house; host or cells: Escherichia coli strain Rosetta
T1 sequence (P08238 whole entry): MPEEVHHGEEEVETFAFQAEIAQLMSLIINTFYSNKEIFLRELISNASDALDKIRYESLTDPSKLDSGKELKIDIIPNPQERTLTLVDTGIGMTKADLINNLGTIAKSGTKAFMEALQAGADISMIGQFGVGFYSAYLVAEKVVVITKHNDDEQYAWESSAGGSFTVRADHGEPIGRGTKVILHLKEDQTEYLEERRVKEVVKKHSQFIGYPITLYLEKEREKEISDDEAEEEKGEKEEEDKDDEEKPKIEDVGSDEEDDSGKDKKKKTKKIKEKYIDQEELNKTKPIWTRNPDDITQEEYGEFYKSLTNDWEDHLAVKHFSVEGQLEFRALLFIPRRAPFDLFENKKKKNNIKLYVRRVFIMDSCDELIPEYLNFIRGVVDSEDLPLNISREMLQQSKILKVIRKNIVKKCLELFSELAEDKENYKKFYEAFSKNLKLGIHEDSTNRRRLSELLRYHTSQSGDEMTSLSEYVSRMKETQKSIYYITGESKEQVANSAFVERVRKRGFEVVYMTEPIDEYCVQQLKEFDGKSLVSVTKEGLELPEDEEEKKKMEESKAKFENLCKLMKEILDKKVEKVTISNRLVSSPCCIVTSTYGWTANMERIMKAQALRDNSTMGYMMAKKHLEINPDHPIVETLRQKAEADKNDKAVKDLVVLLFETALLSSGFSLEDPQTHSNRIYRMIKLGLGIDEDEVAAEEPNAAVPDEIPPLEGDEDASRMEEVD
In words: Microscale thermophoresis (MST) binding to Hsp90β. Here is the method: For the protein expression of full-length Hsp90β, we received plasmids as a kind gift from Dr Asta Zubriené at the Institute of Biotechnology, Vilnius University, Lithuania. Hsp90β, tagged with N-terminal 6×His-tag, was expressed in Escherichia coli strain Rosetta. The cells were cultured in LB media supplemented with kanamycin (50 μg mL^−1) and chloramphenicol (34 μg mL^−1) at 37 °C, and protein expression was initiated with 0.5 mM isopropyl β-D-1-thiogalactopyranoside (IPTG) when the OD600 reached 0.8. Following induction, the cells were incubated for 16 hours at 18 °C before being harvested by centrifugation. The cells were resuspended in a lysis buffer containing 40 mM potassium phosphate pH 8.0, 400 mM KCl, 10 mM imidazole, and protease inhibitors (Sigma), and then lysed by sonication. After centrifugation, the proteins were initially purified using a Ni^2+-affinity HisTrap column (GE Healthcare). Impurities were washed away with lysis buffer containing 20–40 mM imidazole, and Hsp90β was subsequently eluted with lysis buffer containing 300 mM imidazole. The purification process continued with size exclusion chromatography (SEC) using a Superdex-200 (16/600) column (GE Healthcare) and a running buffer of 50 mM Tris pH 7.5 at room temperature, 300 mM KCl. The purity of the fractions was confirmed by SDS-PAGE, and they were then concentrated. For the NMR experiments, Hsp90β was dialyzed against NMR buffer (50 mM potassium phosphate pD 7.5, 100 mM KCl, 2 mM DTT (98%, D10) in D2O) and subsequently frozen in liquid nitrogen.
(§3) The full-length Hsp90β was labeled using the Monolith His-Tag Labeling Kit RED-tris-NTA following the manufacturer's instructions (NanoTemper Technologies GmbH, Munich, Germany). The proteins were first diluted to a concentration of 8 nM in assay buffer (50 mM Tris–HCl, pH 7.4, containing 150 mM NaCl, 5% ethanol, and 10 mM MgCl2). To determine the Kd values, the proteins were mixed with the test compounds in a 1 : 1 ratio as stated in the manufacturers protocol. The final concentration of Hsp90β was 4 nM, with compounds added in the following ranges: 1000 μM to 5.86 μM for 8c; 312.5 μM to 0.15 μM for 13g and 125 μM to 3.91 μM for 1. Two independent Kd determinations were performed for compounds 8c and 13g. […] Next, Cdc37 (AR09008PUN, OriGene Technologies, Inc., Rockville, MD, USA) was acquired for the purpose of PPI inhibition evaluation between full-length Hsp90β and Cdc37. […] In all experiments the compounds were incubated with the proteins for 15 minutes in the dark at room temperature. The mixtures were then loaded into Monolith NT.115 Premium Capillaries (NanoTemper Technologies GmbH, Munich, Germany). Thermophoresis was induced at 1475 ± 15 nm and measured using a Monolith NT.115 pico instrument (NanoTemper Technologies GmbH, Munich, Germany). Measurements were conducted at ambient temperature (24–25 °C), with excitation power set to 20% and MST power set to 40%, and a laser on time of 5 seconds. To calculate the Kd values, the average fluorescence responses for each concentration were plotted against the logarithm of compound concentrate on using GraphPad Prism software (GraphPad Software, Inc., La Jolla, CA).

A short description of data set [5]: Solubility as observed in MST. The format is physicochemical. The following applies: MST assay buffer. Here is the method:
as §3, with “The mixtures were then loaded into Monolith NT.115 Premium Capillaries (NanoTemper Technologies GmbH, Munich, Germany).” left out, “Measurements were conducted at ambient temperature (24–25 °C), with excitation power set to 20% and MST power set to 40%, and a laser on time of 5 seconds.” left out

Data set [6] deals with Hsp90 client protein levels (Cdk4, Akt, c-Raf, ERα, IGF1R) and Hsp70, Hsp90 in MCF-7 cells. The data set can be described thus: Western blot of Hsp90 client proteins and heat shock proteins. It is filed as cell-based. As to conditions: MCF-7, 20 μM, 24 hours. Here is the method:
MCF-7 cells were treated with compounds 8c (20 μM and 50 μM), 13g (20 μM and 50 μM) and DDO-5936 (20 μM) or 0.5% DMSO as a negative control. The cells were incubated with the compounds or negative control for 24 hours. After incubation, the cells were rinsed with PBS (Gibco, Thermo Fisher Scientific, Waltham, MA, USA) and lysed using RIPA buffer containing 50 mM Tris–HCl pH 7.4, 150 mM NaCl, 1% NP-40, 0.5% sodium deoxycholate, and 1 mM EDTA. The RIPA buffer was further supplemented with Halt™ Protease Inhibitor Cocktail and Halt™ Phosphatase Inhibitor Cocktail (both from Thermo Fisher Scientific, Waltham, MA, USA) at a 1 : 100 dilution. The lysates were then frozen for at least 24 hours. Upon thawing, the lysates were sonicated and centrifuged at 15 000 rpm for 20 minutes at 4 °C. Only the supernatants were collected, and protein concentration was measured using the DC protein assay (Bio-Rad, Hercules, California, USA). Proteins (20 μg) were separated by SDS-PAGE on a 10% acrylamide/bisacrylamide gel, running at 80 V for 15 minutes followed by 130 V for 60 minutes. The separated proteins were then transferred onto a nitrocellulose membrane using the iBlot 2 Dry Blotting System (Thermo Fisher Scientific, Waltham, MA, USA). The membranes were blocked with 5% BSA for 1 hour at room temperature to prevent nonspecific binding. Primary antibodies were then added, and the membranes were incubated overnight at 4 °C. The primary antibodies (Cell Signaling, Danvers, MA, USA) used included anti-β-ActinMouse mAb (1 : 5000), anti-Hsp90 Rabbit mAb (1 : 1000), anti-Hsp70 Mouse mAb (1 : 1000), anti-IGF1R Rabbit (1 : 1000), anti-CDK4 Rabbit (1 : 1000), anti-ERα Mouse mAb (1 : 1000), anti-Akt Rabbit mAb (1 : 1000), and anti-c-Raf Rabbit mAb (1 : 1000). Secondary antibodies included anti-rabbit IgG, HRP-linked antibody (1 : 10 000), and anti-mouse IgG, HRP-linked antibody (1 : 10 000), which were incubated with the membranes for 1 hour at room temperature. Following washes, SuperSignal™ West Femto Maximum Sensitivity Substrate (Thermo Fisher Scientific, Waltham, MA, USA) was applied. Visualization of the blots was performed using the UVITEC Cambridge Imaging System (UVITEC, Cambridge, UK), and densitometric analysis of the western blot bands was conducted using NineAlliance software. Relative protein densities were calculated in relation to β-actin, used as a loading control.
In general terms: In western blotting, separated proteins are transferred to a membrane and probed.

Data set [7] has as its target wild-type Hsp90. The arrangement: method as in PMID 31555737. The following applies: cited from earlier work.
Data set [8] has as its target Asp47Ala mutant of Hsp90. The arrangement: method as in PMID 31555737. As to conditions: cited from earlier work.

Consider two molecules from article PMC11375794, “Discovery of new Hsp90–Cdc37 protein–protein interaction inhibitors: in silico screening and optimization of anticancer activity” (RSC Advances, 2024).

A word on the IC50: it is the midpoint of a concentration-inhibition curve. By inhibition is commonly meant the percentage by which the read-out fell short of the control. For orientation: Kd means the equilibrium constant for the complex coming apart.

For `Cc1nc(Nc2nc(C(=O)N(C)CCOc3ccccc3)cs2)cc(C2CCCN(CC#N)C2)n1` (centres unmarked) [Compound 1], the IC50 in data set [1] (MCF7, 72 h) is 29.5 ± 5.4 µM; in data set [2], 25 ± 0.4 µM; in data set [3], more than 50 µM. Further, in data set [4], the “concentrations at which an increase in binding could be detected” value was “above 39 μM”. Also, the “highest concentration without compound-induced protein aggregation” value in data set [4] was found to be 125 µM. The “binding to Hsp90β (qualitative)” value in data set [4] (125 μM to 3.91 μM) is “confirmed qualitatively”. The solubility entry in data set [5] is “poor”.
For the molecule `Cc1cc(C)c(S(=O)(=O)N(CC(=O)O)c2ccc(Nc3ccnc(N4CCCC4)n3)cc2)c(C)c1` [DDO-5936, reference compound], the inhibition at 50 µM in data set [1] (MCF7, MCF-7, at 50 μM, read-out: growth inhibition) was found to be 17%. For the same molecule, the IC50 in data set [1] (MCF7), in data set [2] and in data set [3] was more than 50 µM each time. The ERα level entry in data set [6] is recorded as “downregulated”. Further, the Kd in data set [7] was 3.86 µM; in data set [8] it was more than 100 µM.
